According to article PMC10461224, “Development of an Affinity-Based Probe to Profile Endogenous Human Adenosine A3 Receptor Expression” (Journal of Medicinal Chemistry, 2023):
pKd: −log10 of the molar value. Marks after values point to notes of the source that are not given here.

Tests used:
[1] = biological target: T1, hA3AR (Homo sapiens, UniProt P0DMS8); assay: Wash-out assay, [3H]PSB-11 binding after washing; conditions: 1 μM compound, pre-incubated 2 h at 25 °C, washed 4 times
T1 construct: expressed in transfected cells; host or cells: CHO cells (CHOhA3AR), gift of Prof; K.N. Klotz, University of Würzburg; used as membrane fractions or live cells
T1 sequence (P0DMS8 1-318): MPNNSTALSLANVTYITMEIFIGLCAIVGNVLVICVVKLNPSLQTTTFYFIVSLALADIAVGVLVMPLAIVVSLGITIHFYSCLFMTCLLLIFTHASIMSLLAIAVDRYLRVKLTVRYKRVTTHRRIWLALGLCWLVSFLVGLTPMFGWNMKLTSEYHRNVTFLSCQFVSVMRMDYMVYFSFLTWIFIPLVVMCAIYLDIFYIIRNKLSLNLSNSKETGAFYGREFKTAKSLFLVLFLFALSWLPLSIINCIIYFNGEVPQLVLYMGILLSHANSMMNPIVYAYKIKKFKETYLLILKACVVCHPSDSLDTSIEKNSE
Protocol: 200 μL assay buffer (50 mM Tris–HCl, pH 8.0, 10 mM MgCl2, 1 mM EDTA and 0.01% CHAPS), 100 μL assay buffer containing the competing ligand (final concentration: 1 μM), and 100 μL of CHOhA3AR membrane fractions (100 μg protein) were combined and pre-incubated for 2 h at 25 °C while shaking. The ‘4× washed’ samples were centrifuged (5 min, 13,000 rpm, 4 °C), and the supernatant was removed. The resulting pellet was dissolved in 1 mL of assay buffer and incubated for 10 min at 25 °C while shaking. The ‘4× washed’ samples were then again centrifuged (2 min, 13,000 rpm, 4 °C), the supernatant was removed, and the resulting pellet was dissolved in 1 mL of assay buffer. The latter washing steps were repeated two times (four times washing total), and the final pellet was dissolved in 300 μL assay buffer. The radioligand (10 nM [^3H]PSB-11) in 100 μL of assay buffer was added to all samples, and the samples were incubated at 25 °C for 1 h. Nonspecific binding was determined in the presence of 100 μM NECA. Incubations were terminated by addition of 1 mL of ice-cold washing buffer (50 mM Tris–HCl, pH 8.0, 10 mM MgCl2, 1 mM EDTA) and rapid vacuum filtration through prewetted 96-well GF/B filter plates using a Brandel harvester. Filters were subsequently washed 5 times with ice-cold wash buffer. The plates were dried under vacuum, and a MicroscintTM-20 cocktail (PerkinElmer) was added subsequently. After 3 h, the filter-bound radioactivity was determined using a 2450 MicroBeta Microplate Counter (PerkinElmer).

[2] = biological target: T2, hA1AR (Homo sapiens, UniProt P30542); assay: Full curve displacement assays on the hA1AR; type: binding; conditions: from full curve displacement assays (Table S1)
T2 construct: expressed in transfected cells; host or cells: CHO cells (CHOhA1AR), gift of Prof; S.J. Hill, University of Nottingham; membrane fractions
T2 sequence (P30542 1-326): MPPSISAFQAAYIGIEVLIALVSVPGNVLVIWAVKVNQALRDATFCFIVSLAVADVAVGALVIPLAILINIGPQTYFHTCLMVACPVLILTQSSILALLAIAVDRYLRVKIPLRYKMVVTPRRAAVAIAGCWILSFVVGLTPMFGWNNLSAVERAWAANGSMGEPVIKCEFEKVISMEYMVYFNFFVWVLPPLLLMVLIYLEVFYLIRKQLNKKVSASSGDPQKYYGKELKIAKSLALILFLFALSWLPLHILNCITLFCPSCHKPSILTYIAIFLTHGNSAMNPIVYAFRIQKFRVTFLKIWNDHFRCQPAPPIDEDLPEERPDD
Protocol: The affinity of the synthesized AfBPs was determined in radioligand binding experiments. First, single concentration displacement assays were carried out on all four human adenosine receptors, using a final probe concentration of 1 μM (Table 1). […] This quick screen indicated a good selectivity toward the hA3AR over the other human ARs, a trend that was also observed in the case of the parent compound.[34] Next, the ‘apparent’ affinities (depicted as pKi values) toward the hA3AR were determined using full curve displacement assays. To study the presumable covalent mode of action, the apparent affinity was determined with (pre-4 h) and without (pre-0 h) 4 h of pre-incubation of AfBP with hA3AR, prior to addition of radioligand. […] This difference in affinity was reflected in a shift in apparent pKi. […] To further investigate selectivity toward the hA3AR over the hA1AR, full curve displacement assays were carried out on the hA1AR.
(§1) […]. Single point displacement values shown are mean percentages of two individual experiments performed in duplicate. All pKi values shown are mean values ± SEM of three individual experiments performed in duplicate. Statistical analysis was performed using a one-way ANOVA test with multiple comparisons (****p < 0.0001).

[3] = biological target: T3, human A2AAR (hA2AAR) (Homo sapiens, UniProt P29274); assay: Single-point radioligand displacement, [3H]ZM241385; type: binding; conditions: 1 μM probe; HEK293 cell membranes; co-incubated with radioligand 30 min at 25 °C; mean of two experiments
T3 construct: expressed in transfected cells; host or cells: HEK293 cells (HEKhA2AAR), gift of Dr. J. Wang, Biogen; membrane fractions
Protocol: (§2) Membrane aliquots containing 15 μg (CHOhA3AR), 5 μg (CHOhA1AR), or 30 μg (HEK293hA2AAR and CHO-spap-A2BAR) of protein were resuspended in assay buffer (A3AR: 50 mM Tris–HCl, pH 8.0, 10 mM MgCl2, 1 mM EDTA, 0.01% CHAPS; A1AR and A2AAR: 50 mM Tris–HCl, pH 7.4; A2BAR: 50 mM Tris–HCl, pH 7.4, 0.1% CHAPS). […] Nonspecific binding was determined in the presence of 100 μM NECA (A3AR), 100 μM CPA (A1AR), 100 μM NECA (A2AAR), and 10 μM ZM241385 (A2BAR). Incubations were terminated by rapid vacuum filtration to separate the bound and free radioligand through prewetted 96-well GF/C filter plates using a PerkinElmer Filtermate harvester. Filters were subsequently washed 12 times with ice-cold wash buffer (A3AR: 50 mM Tris–HCl, pH 8.0, 10 mM MgCl2, 1 mM EDTA; A1AR and A2AAR: 50 mM Tris–HCl, pH 7.4; A2BAR: 50 mM Tris–HCl, pH 7.4, 0.1% BSA). The plates were dried at 55 °C, and MicroscintTM-20 cocktail (PerkinElmer) was added subsequently.
(§3) Single point displacement values shown are mean percentages of two individual experiments performed in duplicate. All pKi values shown are mean values ± SEM of three individual experiments performed in duplicate.

[4] = biological target: T4, human A1AR (hA1AR) (Homo sapiens, UniProt P30542); assay: Single-point radioligand displacement, [3H]DPCPX; type: binding; conditions: 1 μM probe; CHO cell membranes; co-incubated with radioligand 30 min at 25 °C; mean of two experiments
T4 construct: expressed in transfected cells; host or cells: CHO cells (CHOhA1AR), gift of Prof; S.J. Hill, University of Nottingham; membrane fractions
T4 sequence (P30542 1-326): T2 sequence (P30542 1-326)
Protocol: as §2, §3

[5] = biological target: T5, human A2BAR (hA2BAR) (Homo sapiens, UniProt P29275); assay: Single-point radioligand displacement, [3H]PSB-603; type: binding; conditions: 1 μM probe; CHO-spap cell membranes; co-incubated with radioligand 30 min at 25 °C; mean of two experiments
T5 construct: expressed in transfected cells; host or cells: CHO-spap cells (CHO-spap-hA2BAR), gift of S.J. Dowell, GlaxoSmithKline; membrane fractions
T5 sequence (P29275 1-332): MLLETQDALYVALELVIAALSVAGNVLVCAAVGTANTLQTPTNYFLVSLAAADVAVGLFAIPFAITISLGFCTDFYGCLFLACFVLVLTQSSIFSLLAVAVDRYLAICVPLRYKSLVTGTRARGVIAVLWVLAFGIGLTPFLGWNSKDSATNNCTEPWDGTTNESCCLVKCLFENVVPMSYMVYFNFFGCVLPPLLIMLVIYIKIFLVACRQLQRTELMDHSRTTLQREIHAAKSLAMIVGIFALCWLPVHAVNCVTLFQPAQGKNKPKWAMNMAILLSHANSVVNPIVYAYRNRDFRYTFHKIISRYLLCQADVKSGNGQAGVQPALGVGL
Protocol: as §2, §3

[6] = biological target: T1, hA3AR; assay: Full curve radioligand displacement assay on the adenosine A3 receptor, [3H]PSB-11; type: binding; conditions: mean ± SEM, n=3
Protocol: Membrane aliquots containing 15 μg of protein (CHOhA3AR) were resuspended in assay buffer (50 mM Tris–HCl, pH 8.0, 10 mM MgCl2, 1 mM EDTA, 0.01% CHAPS). The competing ligand (concentrations ranging from 0.1 to 1000 nM) was added and pre-incubated with the membrane fractions for either 0 or 4 h. The radioligand (10 nM [^3H]PSB-11) was then added and incubated with the samples in a total volume of 100 μL of assay buffer for 30 min at 25 °C. Nonspecific binding was determined in the presence of 100 μM NECA. Incubations were terminated by rapid vacuum filtration through prewetted 96-well GF/C filter plates using a PerkinElmer Filtermate harvester. Filters were subsequently washed 12 times with ice-cold wash buffer (50 mM Tris–HCl, pH 8.0, 10 mM MgCl2, 1 mM EDTA). The plates were dried at 55 °C, and MicroscintTM-20 cocktail (PerkinElmer) was added subsequently. After 3 h, the filter-bound radioactivity was determined using a Tri-Carb 2810TR Liquid Scintillation Analyzer (PerkinElmer).
as §1

[7] = biological target: T1, hA3AR; assay: Single-point radioligand displacement, [3H]PSB-11; type: binding; conditions: 1 μM probe; CHO cell membranes; co-incubated with radioligand 30 min at 25 °C; mean of two experiments
Protocol: as §2, §3

[8] = biological target: hA2BAR; design: method as in PMID 35395239; conditions: taken from previous experiments ref 71; read-out: KD at CHO-spap-hA2BAR membranes; cited from earlier work

T3 sequence (P29274 whole entry): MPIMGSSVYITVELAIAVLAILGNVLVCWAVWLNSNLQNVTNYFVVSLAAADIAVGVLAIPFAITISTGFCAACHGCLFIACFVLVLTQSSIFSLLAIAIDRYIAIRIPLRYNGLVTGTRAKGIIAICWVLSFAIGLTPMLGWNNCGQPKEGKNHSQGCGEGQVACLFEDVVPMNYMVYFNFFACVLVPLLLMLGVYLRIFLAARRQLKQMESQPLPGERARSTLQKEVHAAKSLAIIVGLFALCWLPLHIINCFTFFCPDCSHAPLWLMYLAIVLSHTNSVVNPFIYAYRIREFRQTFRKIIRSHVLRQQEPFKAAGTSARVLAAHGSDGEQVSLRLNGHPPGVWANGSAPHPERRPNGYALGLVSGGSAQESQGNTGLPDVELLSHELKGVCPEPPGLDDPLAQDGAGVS

Structure (SMILES): CCCn1c(=O)c2c(nc3cc(OC)ccn32)n(CCCNC(=O)c2ccc(S(C)(=O)=O)cc2)c1=O [LUF7714, reference compound]
- binding to hA3AR after wash-out ([3H]PSB-11 binding recovery) [1]: full recovery of radioligand binding

Structure (SMILES): COc1ccn2c(c1)nc1c2c(=O)[nH]c(=O)n1CCCNC(=O)OC(C)(C)C [compound 11, tert-Butyl-(3-(8-methoxy-2,4-dioxo-3,4-dihydropyrido[2,1-f]purin-1(2H)-yl)propyl)carbamate]
- selectivity toward the hA3AR over the hA1AR [2]: > 7 fold

Structure (SMILES): C#CCn1c(=O)c2c(nc3cc(OC)ccn32)n(CCCNC(=O)c2ccc(S(=O)(=O)F)cc2)c1=O [compound 13, 4-((3-(8-Methoxy-2,4-dioxo-3-(prop-2-yn-1-yl)-3,4-dihydropyrido[2,1-f]purin-1(2H)-yl)propyl)carbamoyl)benzenesulfonyl fluoride]
- binding to hA3AR after wash-out ([3H]PSB-11 binding recovery) [1]: persistent binding
- % specific [3H]ZM241385 displacement, hA2AAR [3]: 8%
- % specific [3H]DPCPX displacement, hA1AR [4]: 25%
- % specific [3H]PSB-603 displacement, hA2BAR [5]: 5%
- apparent pKi (pre-0 h) ([6]; CHO-hA3AR membranes, 25 °C, 0.5 h co-incubation of probe and radioligand, no pre-incubation): 7.17 ± 0.04
- apparent pKi (pre-4 h) ([6]; CHO-hA3AR membranes, 25 °C, 4 h pre-incubation with probe then 0.5 h co-incubation with radioligand): 8.38 ± 0.05 ^d
- fold change, ratio Ki(0 h)/Ki(4 h) ([6]; hA3AR): 16.6 ± 3.5
- % specific [3H]PSB-11 displacement, hA3AR [7]: 92%

Structure (SMILES): CCCn1c(=O)[nH]c2nc(-c3ccc(S(=O)(=O)N4CCN(c5ccc(Cl)cc5)CC4)cc3)[nH]c2c1=O [[^3H]PSB603]
- pKd [8]: 8.77
